Data taken from paper PMC9919513, “A Practical Approach to Bicyclic Carbamoyl Pyridones with Application to the Synthesis of HIV-1 Integrase Strand Transfer Inhibitors” (Molecules, 2023).
Like-named read-outs stand apart in the source and are kept apart here.

Experiments:
[1] = tested on: HIV-1 vectors that carry WT IN; test: Single-round HIV-1 replication antiviral assay, wild-type IN; format: cell-based; conditions: for Ratio of the antiviral potencies after and before hydrogenation (WT): EC50 of saturated 7 over EC50 of unsaturated 6, WT IN; for EC50: 48 h
Procedure: The bicyclic metal chelating carbamoyl pyridone moiety is common to second-generation tricyclic INSTIs (3, 4, and 5, Figure 1). Analogs of the current study are simplified analogs that lack a third ring. […] The halogen substitution pattern of the benzylamide moiety can affect inhibitory potencies of INSTIs. We determined the antiviral potencies of our compounds in single round HIV-1 replication assays using viral constructs with wild-type IN [31]. Cytotoxicities were determined as previously described. […] In general, the potencies of bicyclic analogs 6 having an unsaturated bond at the C4 position were insensitive to differences in N-methyl substituents. […] Analogs 6g and 6h represent simplified analogs of DTG (3) and CAB (5), respectively, in which the third ring (C-ring) is opened and having doble bond in B-ring, but lacking α-methyl stereochemistry.
Human embryonic kidney cell culture cell line 293 was acquired from the American Type Culture Collection (ATCC). The human osteosarcoma cell line, HOS, was obtained from Dr. Richard Schwartz (Michigan State University, East Lansing, MI, USA) and grown in Dulbecco’s modified Eagle’s medium (Invitrogen, Carlsbad, CA, USA) supplemented with 5% (v/v) fetal bovine serum, 5% newborn calf serum, and penicillin (50 units/mL) plus streptomycin (50 µg/mL; Quality Biological, Gaithersburg, MD, USA). The transfection vector, pNLNgoMIVR-ΔLUC was made from pNLNgoMIVR-ΔEnv.HSA by removing the HSA reporter gene and replacing it with a luciferase reporter gene between the NotI and XhoI restriction sites. To produce the new IN mutant S230N used in this study, the IN open reading frame was removed from pNLNgoMIVR-ΔENV.LUC by digestion with KpnI and SalI, and the resulting fragment was inserted between the KpnI and SalI sites of pBluescript KS+. Using that construct as the wild-type template, we prepared the following HIV-1 IN mutant S230N using the QuikChange II XL site-directed mutagenesis kit (Agilent Technologies, Santa Clara, CA, USA) protocol. The following sense oligonucleotides were used with matching cognate antisense oligonucleotides (not shown) (Integrated DNA Technologies, Coralville, IA, USA) in the mutagenesis: S230N 5′-[…]-3′. The DNA sequence of the IN mutant S230N construct was verified independently by DNA sequence determination. The mutated IN coding sequences from pBluescript KS+ were then subcloned into pNLNgoMIVR-ΔEnv.LUC (between the KpnI and SalI sites) to produce mutant HIV-1 constructs, which were also checked by DNA sequencing. […]. On the day prior to transfection, 293 cells were plated on 100 mm diameter dishes at a density of 1.5 × 10^6 cells per plate. Next, 293 cells were transfected with 16 µg of pNLNgoMIVR^-ΔLUC and 4 µg of pHCMV-g (obtained from Dr. Jane Burns, University of California, San Diego) using the calcium phosphate method. At approximately 6 h after the calcium phosphate precipitate was added, 293 cells were washed twice with phosphate-buffered saline (PBS) and incubated with fresh media for 48 h. The virus-containing supernatants were then harvested, clarified by low-speed centrifugation, filtrated, and diluted for preparation in antiviral infection assays. On the day prior to the screen, HOS cells were seeded in a 96-well luminescence cell culture plate at a density of 4000 cells in 100 µL per well. On the day of the screen for cellular cytotoxicity determination, cells were treated with compounds from a concentration range of 250 µM to 0.05 µM and then incubated at 37 °C for 48 h. On the day of the screen for antiviral activity infection assays, cells were treated with compounds from a concentration range of 5 µM to 0.0001 µM using 11 serial dilutions and then incubated at 37 °C for 3 h. After compound incorporation and activation in the cell, 100 µL of virus-stock (WT or mutant) diluted to achieve a luciferase signal between 0.2 and 1.5 Relative Luciferase Units (RLUs) was added to each well and further incubated at 37 °C for 48 h. […]

[2] = in vitro; format: cell-based; conditions: human, HOS cells
Procedure: Human embryonic kidney cell culture cell line 293 was acquired from the American Type Culture Collection (ATCC). The human osteosarcoma cell line, HOS, was obtained from Dr. Richard Schwartz (Michigan State University, East Lansing, MI, USA) and grown in Dulbecco’s modified Eagle’s medium (Invitrogen, Carlsbad, CA, USA) supplemented with 5% (v/v) fetal bovine serum, 5% newborn calf serum, and penicillin (50 units/mL) plus streptomycin (50 µg/mL; Quality Biological, Gaithersburg, MD, USA). The transfection vector, pNLNgoMIVR-ΔLUC was made from pNLNgoMIVR-ΔEnv.HSA by removing the HSA reporter gene and replacing it with a luciferase reporter gene between the NotI and XhoI restriction sites. To produce the new IN mutant S230N used in this study, the IN open reading frame was removed from pNLNgoMIVR-ΔENV.LUC by digestion with KpnI and SalI, and the resulting fragment was inserted between the KpnI and SalI sites of pBluescript KS+. Using that construct as the wild-type template, we prepared the following HIV-1 IN mutant S230N using the QuikChange II XL site-directed mutagenesis kit (Agilent Technologies, Santa Clara, CA, USA) protocol. The following sense oligonucleotides were used with matching cognate antisense oligonucleotides (not shown) (Integrated DNA Technologies, Coralville, IA, USA) in the mutagenesis: S230N 5′-[…]-3′. The DNA sequence of the IN mutant S230N construct was verified independently by DNA sequence determination. The mutated IN coding sequences from pBluescript KS+ were then subcloned into pNLNgoMIVR-ΔEnv.LUC (between the KpnI and SalI sites) to produce mutant HIV-1 constructs, which were also checked by DNA sequencing. […]. On the day prior to transfection, 293 cells were plated on 100 mm diameter dishes at a density of 1.5 × 10^6 cells per plate. Next, 293 cells were transfected with 16 µg of pNLNgoMIVR^-ΔLUC and 4 µg of pHCMV-g (obtained from Dr. Jane Burns, University of California, San Diego) using the calcium phosphate method. At approximately 6 h after the calcium phosphate precipitate was added, 293 cells were washed twice with phosphate-buffered saline (PBS) and incubated with fresh media for 48 h. The virus-containing supernatants were then harvested, clarified by low-speed centrifugation, filtrated, and diluted for preparation in antiviral infection assays. On the day prior to the screen, HOS cells were seeded in a 96-well luminescence cell culture plate at a density of 4000 cells in 100 µL per well. On the day of the screen for cellular cytotoxicity determination, cells were treated with compounds from a concentration range of 250 µM to 0.05 µM and then incubated at 37 °C for 48 h. On the day of the screen for antiviral activity infection assays, cells were treated with compounds from a concentration range of 5 µM to 0.0001 µM using 11 serial dilutions and then incubated at 37 °C for 3 h. After compound incorporation and activation in the cell, 100 µL of virus-stock (WT or mutant) diluted to achieve a luciferase signal between 0.2 and 1.5 Relative Luciferase Units (RLUs) was added to each well and further incubated at 37 °C for 48 h. Cellular cytotoxicity was measured by using the ATP Lite Luminescence detection system and monitored by adding 50 µL of cell lysis buffer from the Luminescence ATP detection assay to each well followed by mixing at 700 rpm at room temperature for 5 min using a compact thermomixer. After addition of 50 µL of reconstituted Luminescence ATP detection assay reagent to all wells except for the negative control/background wells, the plates were mixed at 700 rpm at room temperature for 5 min using a compact thermomixer, incubated at room temperature for 20 min to allow time for signal development, and finally, cytotoxicity was determined using the microplate reader. Infectivity was measured by using the Steady-lite plus luminescence reporter gene assay system (PerkinElmer, Waltham, MA, USA). […]

[3] = Human immunodeficiency virus 1, HOS, read-out: EC50, antiviral potency, WT IN, VSV-g-pseudotyped HIV-1 luciferase vector with WT IN, HOS cells, 48 h
[4] = 48 h, read-out: CC50, cytotoxic concentration resulting in 50% reduction in the level of ATP

Structure (SMILES) | melting point [°C] | Ratio of the antiviral potencies after and before hydrogenation (WT) [1] | EC50 [1, 3] [nM] | CC50 [2, 4] [nM] | EC50 ([1]; read-out: EC50, antiviral potency, WT IN, VSV-g-pseudotyped HIV-1 luciferase vector with WT IN, HOS cells) [nM] | CC50 ([2]; running text of b13, read-out: CC50, cytotoxicity) [nM]
COCCN1CCn2cc(C(=O)NCc3ccc(F)cc3F)c(=O)c(O)c2C1=O [Compound 7h, N-(2,4-Difluorobenzyl)-9-hydroxy-2-(2-methoxyethyl)-1,8-dioxo-1,3,4,8-tetrahydro-2H-pyrido [1,2-a]pyrazine-7-carboxamide] | 207 to 210 | 2.1 | 3.9 ± 0.5 | – | – | –
COCCCn1ccn2cc(C(=O)NCc3ccc(F)cc3F)c(=O)c(O)c2c1=O [Compound 6g, N-(2,4-Difluorobenzyl)-9-hydroxy-2-(3-methoxypropyl)-1,8-dioxo-1,8-dihydro-2H-pyrido [1,2-a]pyrazine-7-carboxamide] | – | – | ~2 | > 250000 | – | –
CC(C)CC(C)N1CCn2cc(C(=O)NCc3ccc(F)cc3F)c(=O)c(O)c2C1=O (centres unmarked) [Compound 7i, N-(2,4-Difluorobenzyl)-9-hydroxy-2-(4-methylpentan-2-yl)-1,8-dioxo-1,3,4,8-tetrahydro-2H-pyrido [1,2-a]pyrazine-7-carboxamide] | 190 to 192 | 1.4 | 6 ± 1.2 | > 250000 | – | –
O=C(NCc1c(F)cc(F)cc1F)c1cn2c(c(O)c1=O)C(=O)N1[C@H]3CC[C@H](C3)O[C@@H]1C2 [BIC, Bictegravir, reference compound] | – | – | ~2 | – | – | –
COCCCN1CCn2cc(C(=O)NCc3ccc(F)cc3F)c(=O)c(O)c2C1=O [Compound 7g, N-(2,4-Difluorobenzyl)-9-hydroxy-2-(3-methoxypropyl)-1,8-dioxo-1,3,4,8-tetrahydro-2H-pyrido [1,2-a]pyrazine-7-carboxamide] | 250 to 252 | 2.0 | 4 ± 0.7 | > 250000 | – | –
COCCn1ccn2cc(C(=O)NCc3ccc(F)cc3F)c(=O)c(O)c2c1=O [Compound 6h, N-(2,4-Difluorobenzyl)-9-hydroxy-2-(2-methoxyethyl)-1,8-dioxo-1,8-dihydro-2H-pyrido [1,2-a]pyrazine-7-carboxamide] | – | – | ~2 | > 250000 | 1.9 ± 0.4 | –
COCCCCCCN1CCn2cc(C(=O)NCc3ccc(F)cc3F)c(=O)c(O)c2C1=O [Compound 7f, N-(2,4-Difluorobenzyl)-9-hydroxy-2-(6-methoxyhexyl)-1,8-dioxo-1,3,4,8-tetrahydro-2H-pyrido [1,2-a]pyrazine-7-carboxamide] | 228 to 232 | 0.96 | 4.6 ± 0.4 | > 250000 | – | –
CC(C)N1CCn2cc(C(=O)NCc3ccc(F)cc3F)c(=O)c(O)c2C1=O [Compound 7b, N-(2,4-Difluorobenzyl)-9-hydroxy-2-isopropyl-1,8-dioxo-1,3,4,8-tetrahydro-2H-pyrido [1,2-a]pyrazine-7-carboxamide] | – | 0.79 | 3 ± 0.1 | – | – | 167000
COCCCCCCn1ccn2cc(C(=O)NCc3ccc(F)cc3F)c(=O)c(O)c2c1=O [Compound 6f, N-(2,4-Difluorobenzyl)-9-hydroxy-2-(6-methoxyhexyl)-1,8-dioxo-1,8-dihydro-2H-pyrido [1,2-a]pyrazine-7-carboxamide] | – | – | 4.8 ± 0.2 | > 250000 | – | –
C[C@H]1CO[C@@H]2Cn3cc(C(=O)NCc4ccc(F)cc4F)c(=O)c(O)c3C(=O)N12 [CAB, Cabotegravir, reference compound] | – | – | ~2 | – | – | –
CN1CCn2cc(C(=O)NCc3ccc(F)cc3F)c(=O)c(O)c2C1=O [Compound 7a, N-(2,4-Difluorobenzyl)-9-hydroxy-2-methyl-1,8-dioxo-1,3,4,8-tetrahydro-2H-pyrido [1,2-a]pyrazine-7-carboxamide] | 247 to 252 | 1.7 | 4.6 ± 0.7 | > 250000 | – | –
CC(C)n1ccn2cc(C(=O)NCc3ccc(F)cc3F)c(=O)c(O)c2c1=O [Compound 6b, N-(2,4-Difluorobenzyl)-9-hydroxy-2-isopropyl-1,8-dioxo-1,8-dihydro-2H-pyrido [1,2-a]pyrazine-7-carboxamide] | – | – | 3.8 ± 0.6 | > 250000 | – | –
Cn1ccn2cc(C(=O)NCc3ccc(F)cc3F)c(=O)c(O)c2c1=O [Compound 6a, N-(2,4-Difluorobenzyl)-9-hydroxy-2-methyl-1,8-dioxo-1,8-dihydro-2H-pyrido [1,2-a]pyrazine-7-carboxamide] | 275 to 280 | – | 2.7 ± 0.2 | – | – | –
